# Measured values published in patent publication US12697330B2, “Therapeutic methods using vadadustat” (Akebia Therapeutics, Inc., priority 2021, dated 2026).
# Experiments:
# Type in all cases: in vivo, human
# [1] = tested on: erythropoietin (EPO); experiment: Phase 2 study, Main Study: pharmacodynamics, Baseline-Adjusted serum EPO concentration
# Method: PK/PD Endpoints. An exposure-response analysis of vadadustat and PD measures were conducted as deemed appropriate. The PK parameters included (but were not limited to) the following: area under concentration-time curve from dosing to last measurable concentration (AUClast), area under concentration-time curve from dosing to infinity (AUCinf), Cmax, apparent total body clearance (CL/F), apparent volume of distribution (Vd/F), and terminal half-life (t1/2). The PD parameters included (but were not limited to) the following: EPO, reticulocytes, iron, ferritin, TIBC, and hepcidin.
# PK population: included all randomized subjects who received study drug (vadadustat or epoetin alfa) and had enough drug concentrations to estimate AUC and Cmax. Analysis of this population was based on the dose amount taken at the date of PK sampling for the vadadustat group.
# PD parameters for serum EPO concentration are presented by epoetin alfa stratification for vadadustat treatment groups in Table 7, Table 8a and Table 8b (baseline-unadjusted) and Table 9, Table 10a and Table 10b (baseline-adjusted).
# [2] = tested on: Hb; experiment: Phase 1b study: pharmacodynamics, Hb, reticulocytes, iron indices, hepcidin; conditions: 10-day Treatment period
# Description: PD Sampling. For all vadadustat and ESA treatment groups, in addition to EPO, blood samples for Hb, reticulocytes and iron indices for PD analyses were collected on Day 1, Day 6 and Day 10. Hepcidin were collected predose on Day 1, Day 6, and Day 10 for PD analysis.
# Secondary Endpoints. For each treatment group, PD parameters included, but were not limited to, as deemed appropriate: hepcidin, erythropoietin (EPO), iron indices (iron, ferritin, total iron-binding capacity [TIBC], TSAT), Hb, and reticulocytes.
# [3] = tested on: hemodialysis subjects; experiment: Main Study: vadadustat versus epoetin alfa in hemodialysis subjects (Hb, ESA/RBC rescue, EPO levels)
# Description: The primary efficacy endpoint was to assess the mean change in Hb between baseline and the PEP (Weeks 10 to 12) in hemodialysis subjects.
# The first key secondary efficacy endpoint was the proportion of subjects with Hb values within the target range (10.0 to 11.0 g/dL, inclusive) at the PEP (Weeks 10 to 12).
# The second key secondary endpoint was the mean change in Hb from PEP (average Hb from Weeks 10 to 12) to the SEP (average Hb from Weeks 18 to 20) for subjects who transitioned to TIW vadadustat dosing. In the Main Study, the change in Hb from PEP to SEP for the 17 subjects who switched from QD to TIW was −0.4 g/dL.
# [4] = Vada 150 mg, Week 11, High Epoetin Alfa Stratum >90 to <300 U/kg/week
# [5] = Vada 150 mg, Week 11, Low Epoetin Alfa Stratum ≤90 U/kg/week
# [6] = Vada 300 mg, Week 1 + 1, High Epoetin Alfa Stratum >90 to <300 U/kg/week
# [7] = Vada 300 mg, Week 1 + 1, Low Epoetin Alfa Stratum ≤90 U/kg/week
# [8] = Vada 300 mg, Week 1, High Epoetin Alfa Stratum >90 to <300 U/kg/week
# [9] = Vada 300 mg, Week 1, Low Epoetin Alfa Stratum ≤90 U/kg/week
# [10] = Vada 300 mg, Week 11, High Epoetin Alfa Stratum >90 to <300 U/kg/week
# [11] = Vada 300 mg, Week 11, Low Epoetin Alfa Stratum ≤90 U/kg/week
# [12] = Vada 450 mg, Week 1 + 1, High Epoetin Alfa Stratum >90 to <300 U/kg/week
# [13] = Vada 450 mg, Week 1 + 1, Low Epoetin Alfa Stratum ≤90 U/kg/week
# [14] = Vada 450 mg, Week 1, High Epoetin Alfa Stratum >90 to <300 U/kg/week
# [15] = Vada 450 mg, Week 1, Low Epoetin Alfa Stratum ≤90 U/kg/week
# [16] = Vada 450 mg, Week 11, High Epoetin Alfa Stratum >90 to <300 U/kg/week
# [17] = Vada 450 mg, Week 11, Low Epoetin Alfa Stratum ≤90 U/kg/week
# [18] = Vada 450 mg, Week 13, Low Epoetin Alfa Stratum ≤90 U/kg/week
# [19] = Vada 600 mg, Week 1 + 1, High Epoetin Alfa Stratum >90 to <300 U/kg/week
# [20] = Vada 600 mg, Week 1, High Epoetin Alfa Stratum >90 to <300 U/kg/week
# [21] = Vada 600 mg, Week 11, High Epoetin Alfa Stratum >90 to <300 U/kg/week
# [22] = Vada 600 mg, Week 11, Low Epoetin Alfa Stratum ≤90 U/kg/week
# [23] = Vada 600 mg, Week 13, High Epoetin Alfa Stratum >90 to <300 U/kg/week
# [24] = Vada 600 mg, Week 13, Low Epoetin Alfa Stratum ≤90 U/kg/week
# [25] = Vada 750 mg, Week 11, High Epoetin Alfa Stratum >90 to <300 U/kg/week
# [26] = Vada 750 mg, Week 11, Low Epoetin Alfa Stratum ≤90 U/kg/week
# [27] = Vada 750 mg, Week 13, High Epoetin Alfa Stratum >90 to <300 U/kg/week
# [28] = Vada 750 mg, Week 13, Low Epoetin Alfa Stratum ≤90 U/kg/week
# [29] = Vada 900 mg, Week 11, High Epoetin Alfa Stratum >90 to <300 U/kg/week
# [30] = Vada 900 mg, Week 11, Low Epoetin Alfa Stratum ≤90 U/kg/week
compound,measurement,setting,value
"O=C(O)CNC(=O)c1ncc(-c2cccc(Cl)c2)cc1O [Compound 1, {[5-(3-chlorophenyl)-3-hydroxypyridine-2-carbonyl]amino}acetic acid]","Baseline-Adjusted Serum EPO Cmax, Geometric Mean",[1]; [4],4.29 µg/mL
same,"Baseline-Adjusted Serum EPO Tmax, Median",[1]; [4],0 h
same,"Baseline-Adjusted Serum EPO Cmax, Geometric Mean",[1]; [5],4.32 µg/mL
same,"Baseline-Adjusted Serum EPO Tmax, Median",[1]; [5],4.78 h
same,"Baseline-Adjusted Serum EPO Cmax, Geometric Mean",[1]; [6],7.2 µg/mL
same,"Baseline-Adjusted Serum EPO Tmax, Median",[1]; [6],0 h
same,"Baseline-Adjusted Serum EPO Cmax, Geometric Mean",[1]; [7],10.1 µg/mL
same,"Baseline-Adjusted Serum EPO Tmax, Median",[1]; [7],2.00 h
same,"Baseline-Adjusted Serum EPO Cmax, Geometric Mean",[1]; [8],9.1 µg/mL
same,"Baseline-Adjusted Serum EPO Tmax, Median",[1]; [8],0 h
same,"Baseline-Adjusted Serum EPO Cmax, Geometric Mean",[1]; [9],9.1 µg/mL
same,"Baseline-Adjusted Serum EPO Tmax, Median",[1]; [9],4.50 h
same,"Baseline-Adjusted Serum EPO Cmax, Geometric Mean",[1]; [10],33.8 µg/mL
same,"Baseline-Adjusted Serum EPO Tmax, Median",[1]; [10],0 h
same,"Baseline-Adjusted Serum EPO Cmax, Geometric Mean",[1]; [11],14.5 µg/mL
same,"Baseline-Adjusted Serum EPO Tmax, Median",[1]; [11],1.00 h
same,"Baseline-Adjusted Serum EPO Cmax, Geometric Mean",[1]; [12],10.0 µg/mL
same,"Baseline-Adjusted Serum EPO Tmax, Median",[1]; [12],0 h
same,"Baseline-Adjusted Serum EPO Cmax, Geometric Mean",[1]; [13],11.8 µg/mL
same,"Baseline-Adjusted Serum EPO Tmax, Median",[1]; [13],4.50 h
same,"Baseline-Adjusted Serum EPO Cmax, Geometric Mean",[1]; [14],14.0 µg/mL
same,"Baseline-Adjusted Serum EPO Tmax, Median",[1]; [14],4.50 h
same,"Baseline-Adjusted Serum EPO Cmax, Geometric Mean",[1]; [15],18.1 µg/mL
same,"Baseline-Adjusted Serum EPO Tmax, Median",[1]; [15],1.75 h
same,"Baseline-Adjusted Serum EPO Cmax, Geometric Mean",[1]; [16],15.5 µg/mL
same,"Baseline-Adjusted Serum EPO Tmax, Median",[1]; [16],0.88 h
same,"Baseline-Adjusted Serum EPO Cmax, Geometric Mean",[1]; [17],8.00 µg/mL
same,"Baseline-Adjusted Serum EPO Tmax, Median",[1]; [17],2.08 h
same,"Baseline-Adjusted Serum EPO Cmax, Geometric Mean",[1]; [18],11.4 µg/mL
same,"Baseline-Adjusted Serum EPO Tmax, Median",[1]; [18],3.94 h
same,"Baseline-Adjusted Serum EPO Cmax, Geometric Mean",[1]; [19],18.9 µg/mL
same,"Baseline-Adjusted Serum EPO Tmax, Median",[1]; [19],2.47 h
same,"Baseline-Adjusted Serum EPO Cmax, Geometric Mean",[1]; [20],26.0 µg/mL
same,"Baseline-Adjusted Serum EPO Tmax, Median",[1]; [20],0 h
same,"Baseline-Adjusted Serum EPO Cmax, Geometric Mean",[1]; [21],14.6 µg/mL
same,"Baseline-Adjusted Serum EPO Tmax, Median",[1]; [21],0.92 h
same,"Baseline-Adjusted Serum EPO Cmax, Geometric Mean",[1]; [22],13.7 µg/mL
same,"Baseline-Adjusted Serum EPO Tmax, Median",[1]; [22],4.00 h
same,"Baseline-Adjusted Serum EPO Cmax, Geometric Mean",[1]; [23],173.0 µg/mL
same,"Baseline-Adjusted Serum EPO Tmax, Median",[1]; [23],4.63 h
same,"Baseline-Adjusted Serum EPO Cmax, Geometric Mean",[1]; [24],8.1 µg/mL
same,"Baseline-Adjusted Serum EPO Tmax, Median",[1]; [24],7.08 h
same,"Baseline-Adjusted Serum EPO Cmax, Geometric Mean",[1]; [25],14.8 µg/mL
same,"Baseline-Adjusted Serum EPO Tmax, Median",[1]; [25],4.75 h
same,"Baseline-Adjusted Serum EPO Cmax, Geometric Mean",[1]; [26],3.91 µg/mL
same,"Baseline-Adjusted Serum EPO Tmax, Median",[1]; [26],4.50 h
same,"Baseline-Adjusted Serum EPO Cmax, Geometric Mean",[1]; [27],6.8 µg/mL
same,"Baseline-Adjusted Serum EPO Tmax, Median",[1]; [27],0 h
same,"Baseline-Adjusted Serum EPO Cmax, Geometric Mean",[1]; [28],7.7 µg/mL
same,"Baseline-Adjusted Serum EPO Tmax, Median",[1]; [28],4.50 h
same,"Baseline-Adjusted Serum EPO Cmax, Geometric Mean",[1]; [29],21.4 µg/mL
same,"Baseline-Adjusted Serum EPO Tmax, Median",[1]; [29],0 h
same,"Baseline-Adjusted Serum EPO Cmax, Geometric Mean",[1]; [30],10.8 µg/mL
same,"Baseline-Adjusted Serum EPO Tmax, Median",[1]; [30],0 h
"O=C(O)CNC(=O)c1ncc(-c2cccc(Cl)c2)cc1O [vadadustat, {[5-(3-chlorophenyl)-3-hydroxypyridine-2-carbonyl]amino}acetic acid]",mean Hb levels versus dose,[2],not a dose-dependent increase
same,subjects receiving ESA administration as rescue,"[3]; Baseline (inclusive) to Week 12 (inclusive), compared to epoetin alfa treated subjects",more
same,subjects receiving any ESA administration,"[3]; Baseline (inclusive) to Week 20 (inclusive), compared to epoetin alfa treated subjects",more
same,change in Hb from PEP (Weeks 10 to 12) to SEP (Weeks 18 to 20),"[3]; Main Study, 17 subjects who switched from QD to TIW",-0.4 g/dL
same,mean change from baseline in Hb,"[3]; Main Study, baseline to PEP (Weeks 10 to 12), compared to epoetin alfa treatment group, throughout",numerically lower
same,mean (SD) Hb overall at Weeks 10 to 12,"[3]; Main Study, compared to epoetin alfa",lower
same,mean change in Hb between baseline and the SEP,"[3]; Main Study, compared to epoetin alfa treatment group",lower
same,proportion of subjects with RBC transfusion and RBC transfusion as rescue,"[3]; across treatment groups, all study periods",similar
same,change from baseline in Hb,"[3]; high epoetin alfa stratum, vadadustat 300 mg, after Week 10 Hb began to return towards baseline",decrease from baseline in Hb up to Week 10
same,number of subjects within target Hb range,"[3]; high epoetin alfa stratum, vadadustat groups (particularly 300 mg) compared to epoetin alfa treatment group",numerically lower
same,change from baseline in Hb,"[3]; low epoetin alfa stratum, except for the vadadustat 300 mg group throughout treatment",no decrease from baseline in Hb was observed
same,"proportion of subjects with Hb values within the target range (10.0 to 11.0 g/dL, inclusive) at Weeks 10 to 12","[3]; vadadustat 300 mg group of the high epoetin alfa stratum, lowest proportion",8.3%
